Results as given in US7507727B2, “Substituted quinobenzoxazine analogs and methods of using thereof” (Cylene Pharmaceuticals, Inc., priority 2003, dated 2009).

Columns and labels:
[1] = tested on: HeLa cells; assay: MTS cell proliferation and/or cytotoxicity assay; format: cell-based, Human; details: Homo sapiens, HeLa, 72 h, concentration at which 50% of antiproliferative cell response is seen; 3 days incubation; read-out: MTS Data Hella
Description: Cell culture. Human cervical epithelial cells (HeLa cells) were obtained from American Type Culture Collection (Manassas, Va.). Cells were grown in Eagle's minimum essential medium (MEM, Hyclone, Utah) supplemented with 2 mM Glutamine, 0.1 mM nonessential amino acid, 1 mM Na Pyruvate, 1.5 g/L NaHCO3, 50 mg/L gentamicin, and 10% fetal bovine serum (Hyclone, USA) in a humidified atmosphere of 5% CO2 at 37° C.
MTS assays. Antiproliferative effects of the compounds were tested by the CellTiter 96 AQueous assay (Promega, WI), which is a calorimetric assay for determining the number of viable cells. (See, e.g., Wang, L., et al., Methods Cell Sci (1996) 18:249-255). In one example, cells (4,500 cells/well) were seeded on 96 well flat bottom plates (Corning, N.Y.) in 100 μl of culture medium without any anticancer drug on day 0, and the culture medium was exchanged for that //contained anticancer drugs at various concentrations on day 1. After incubation for 3 days under normal growth conditions (on day 4), the monolayers were washed once in PBS, and the medium was switched to 100 μl of PBS in each of the 96 well plate. After mixing MTS and PMS at the ratio of 20:1, 20 μl of MTS/PMS solution was added to each of the 96 well plate and incubated for 4 hours in a humidified atmosphere of 5% CO2 at 37° C. The absorbance was read at 490 nm using FLUOstar Galaxy 96 well plate reader (BMG Labtechnologies, Germany). μM concentrations (MTS data) reported in Table 1 are concentrations at which 50% of antiproliferative cell response is seen.

[2] = target: c-Myc template DNA (c-myc quadruplex); assay: Quadruplex binding / stop assay (Taq polymerase arrest, capillary electrophoresis); details: read-out: Stop Data c-Myc μM; concentration at which 50% of the DNA was arrested (arrested:full-length 1:1)
Description: A high throughput polymerase arrest assay has been developed. The assay comprises contacting a template nucleic acid, often DNA, with a primer, which also is often DNA; contacting the primer/template complex with a compound described herein (also referred to as a “test compound”); contacting the primer/template complex with a polymerase; and separating reaction products. The assay often includes the step of denaturing the primer/template complex mixture and then renaturing the complex, which often is carried out before a test molecule is added to the system. Multiple assays often are carried out using varying concentrations of a test compound, such that an IC50 value can be obtained, for example. The reaction products often include extended primers of different lengths.
Thus, the reaction mixture often includes at least two reaction products when a test compound interacts with a quadruplex structure in the template, one having a completely extended primer and one having an incompletely extended primer, and these two reaction products are separated. The products may be separated using any convenient separation method, such as mass spectrometry and in one embodiment, capillary electrophoresis.
In an embodiment, a primer oligonucleotide covalently linked to a fluorescent label is contacted with template DNA. The resulting complex is contacted with a test molecule and then contacted with a polymerase capable of extending the primer. The reaction products then are separated and detected by capillary electrophoresis. A longer primer sequence was used for practicing this embodiment as compared to embodiments where the primer includes no covalently-linked fluorophore or where capillary electrophoresis is not utilized for separation. Deoxynucleotides are added at any stage of the assay before the separation, often when the primer is contacted with the template DNA. The template DNA/primer complex often is denatured (e.g., by increasing the temperature of the system) and then renatured (e.g., by cooling the system) before a test compound is added).
The mixture was denatured at 95° C. for 5 minutes and, after cooling down to room temperature, was incubated at 37° C. for 15 minutes.
After cooling down to room temperature, 1 mM KCl and the test compound (various concentrations) were added and the mixture incubated for 15 minutes at room temperature. The primer extension was performed by adding 10 mM KCl and Taq DNA Polymerase (2.5 U/reaction, Promega) and incubating at 70° C. for 30 minutes. The reaction was stopped by adding 1 μl of the reaction mixture to 10 μl Hi-Di Formamide mixed and 0.25 μl LIZ120 size standard. Hi-Di Formamide and LIZ120 size standard were purchased from Applied Biosystems.
The partially extended quadruplex arrest product was between 61 or 62 bases long and the full-length extended product was 99 bases long. The products were separated and analyzed using capillary electrophoresis. Capillary electrophoresis was performed using an ABI PRISM 3100-Avant Genetic Analyzer.
Stop Assays. […] A fluorescently labeled primer DNA is then annealed to the 3′ end of the template DNA. A DNA polymerase such as Taq polymerase is then introduced to synthesize a complementary strand of DNA by extending from the fluorescently labeled primer. When the progress of the Taq polymerase is unhindered, it synthesizes a full-length copy of the template.
These products are visualized by capillary electrophoresis.

Compound `CN1CCCC1CCNC(=O)c1cn2c3c(c(N4CC[C@@H](N)C4)c(F)cc3c1=O)Oc1ccccc1-2` (stereo partly drawn) [compound 111] has an IC50 [1] of 0.22 µM and an IC50 [2] of 1.75 µM.
`N[C@@H]1CCN(c2c(F)cc3c(=O)c(C(=O)NCCN4CCCC4)cn4c3c2Oc2ccccc2-4)C1` [compound 112] gave an IC50 [1] of 0.22 µM and an IC50 [2] of 1.75 µM.
Work on `O=C(NCCN1CCCC1)c1cn2c3c(c(N4CCC(c5cnccn5)C4)ccc3c1=O)Oc1cc3ccccc3cc1-2` (stereo not drawn) [compound 303] yielded an IC50 [1] of 2.1 µM and an IC50 [2] of 1.5 µM.
Compound `CN1CCCC1CCNC(=O)c1cn2c3c(c(NCCN4CCCC4)c(F)cc3c1=O)Oc1cc3c(cc1-2)oc1ccccc13` (stereo not drawn) [compound 306] has an IC50 [1] of 3.2 µM and an IC50 [2] of 1 µM.
`CN(CCc1ccccn1)C(=O)c1cn2c3c(c(NCCCN4CCOCC4)c(F)cc3c1=O)Oc1cc3c(cc1-2)-c1ccccc1C3` [compound 307] gave an IC50 [1] of 3.1 µM and an IC50 [2] of 1 µM.
`O=C(CCN1CCCCC1)N[C@@H]1CCN(c2c(F)cc3c(=O)c(C(=O)NCCN4CCCC4)cn4c3c2Oc2cc3c(cc2-4)oc2ccccc23)C1` [compound 308] gave an IC50 [1] of 3.1 µM and an IC50 [2] of 1 µM.
In the case of `CCN(CC)CCCC(C)NC(=O)c1cn2c3c(c(N4CCC(c5cnccn5)C4)ccc3c1=O)Oc1cc3ccccc3cc1-2` (stereo not drawn) [compound 309], the IC50 [1] is reported as 3 µM and the IC50 [2] is reported as 1 µM.
`COc1ccc(CCNc2c(F)cc3c(=O)c(C(=O)NCCC4CCCN4C)cn4c3c2Oc2cc3ccccc3cc2-4)cc1OC` (stereo not drawn) [compound 310] was tested, and the IC50 [1] was 2.3 µM and the IC50 [2] was 1 µM.
Compound `CN1CCCC1CCNC(=O)c1cn2c3c(c(N4CCC(N)C4)c(F)cc3c1=O)Oc1cc(-c3nc4ccccc4s3)ccc1-2` (stereo not drawn) [compound 311] has an IC50 [1] of 2.1 µM and an IC50 [2] of 1 µM.
Work on `CC(C)NCCCNC(=O)c1cn2c3c(c(N4CCC(NC(=O)OC(C)(C)C)C4)c(F)cc3c1=O)Oc1cc3ccccc3cc1-2` (stereo not drawn) [compound 312] yielded an IC50 [1] of 1.9 µM and an IC50 [2] of 1 µM.
`CN1CCN(c2c(F)cc3c(=O)c(C(=O)NCCN4CCCC4)cn4c5cc6c(=O)c7ccccc7c(=O)c6cc5oc2c34)CC1` [compound 340] was tested, and the IC50 [1] was 8.5 µM and the IC50 [2] was 0.9 µM.
In the case of `N[C@H]1CCN(c2c(F)cc3c(=O)c(C(=O)NCCN4CCCC4)cn4c3c2Oc2cc3ccccc3cc2-4)C1` [compound 341], the IC50 [1] is reported as 0.28 µM and the IC50 [2] is reported as 0.9 µM.
In the case of `CN(C)CCCCNC(=O)c1cn2c3c(c(N4CC[C@@H](NC(=O)CCN5CCN(C)CC5)C4)c(F)cc3c1=O)Oc1cc3c(cc1-2)oc1ccccc13` [compound 357], the IC50 [1] is reported as 8.6 µM and the IC50 [2] is reported as 0.75 µM.
For `O=C(CCNCCN1CCOCC1)N[C@@H]1CCN(c2c(F)cc3c(=O)c(C(=O)NCCN4CCCC4)cn4c3c2Oc2cc3c(cc2-4)oc2ccccc23)C1` [compound 358], the IC50 [1] was 5.7 µM and the IC50 [2] was 0.75 µM.
In the case of `CN(C)CCCCNC(=O)c1cn2c3cc4oc5cc([N+](=O)[O-])ccc5[nH]c4cc3oc3c(NCCN4CCCC4)c(F)cc(c1=O)c32` [compound 359], the IC50 [1] is reported as 4.8 µM and the IC50 [2] is reported as 0.75 µM.
With `CN1CCN(CCC(=O)N[C@@H]2CCN(c3c(F)cc4c(=O)c(C(=O)NCCC5CCCN5C)cn5c4c3Oc3cc4c(cc3-5)oc3ccccc34)C2)CC1` (stereo partly drawn) [compound 360] the IC50 [1] was 4.5 µM and the IC50 [2] was 0.75 µM.
`O=C(NCCN1CCOCC1)c1cn2c3c(c(NCCCN4CCOCC4)c(F)cc3c1=O)Oc1cc3c(cc1-2)oc1ccccc13` [compound 361] showed an IC50 [1] of 4.2 µM and an IC50 [2] of 0.75 µM.
`CN1CCCC1CCNC(=O)c1cn2c3c(c(NCCCN4CCOCC4)c(F)cc3c1=O)Oc1cc3c(cc1-2)oc1ccccc13` (stereo not drawn) [compound 362] showed an IC50 [1] of 4 µM and an IC50 [2] of 0.75 µM.
In the case of `CN1CCN(CCCNc2c(F)cc3c(=O)c(C(=O)NCCC4CCCN4C)cn4c3c2Oc2cc3c(cc2-4)oc2ccccc23)CC1` (stereo not drawn) [compound 363], the IC50 [1] is reported as 3.8 µM and the IC50 [2] is reported as 0.75 µM.
Work on `CN1CCN(CCCNC(=O)c2cn3c4c(c(NCCC5CCCN5C)c(F)cc4c2=O)Oc2cc4c(cc2-3)oc2ccccc24)CC1` (stereo not drawn) [compound 364] yielded an IC50 [1] of 3.8 µM and an IC50 [2] of 0.75 µM.
`CN1CCN(CCCNC(=O)c2cn3c4c(c(NCCN5CCCC5)c(F)cc4c2=O)Oc2cc4c(cc2-3)oc2ccccc24)CC1` [compound 365] was tested, and the IC50 [1] was 3.8 µM and the IC50 [2] was 0.75 µM.
`CN(C)CCCCNc1c(F)cc2c(=O)c(C(=O)NCCC3CCCN3C)cn3c2c1Oc1cc2c(cc1-3)oc1ccccc12` (stereo not drawn) [compound 366] showed an IC50 [1] of 3.7 µM and an IC50 [2] of 0.75 µM.
`CN(C)CCCCNC(=O)c1cn2c3c(c(NCCCCN(C)C)c(F)cc3c1=O)Oc1cc3c(cc1-2)oc1ccccc13` [compound 367] showed an IC50 [1] of 3.7 µM and an IC50 [2] of 0.75 µM.
For `O=C(NCCCn1ccnc1)c1cn2c3c(c(NCCN4CCCC4)c(F)cc3c1=O)Oc1cc3c(cc1-2)oc1ccccc13` [compound 368], the IC50 [1] was 3.6 µM and the IC50 [2] was 0.75 µM.
